From publication PMC12830042, “Investigating the impact of charge and hydrophilicity on peptide-mucin interactions using a simple mucin model” (AAPS open, 2025)

Tested on: Mucin type II from porcine stomach
Assay: Peptide diffusion across a mono-component mucin layer (Transwell donor to acceptor chamber)
Format: in vitro ADME
Settings: for time window in which acceptor concentration plateaued / leveled off: donor 266 and 133 μg/mL (both concentrations); for time window in which acceptor concentration plateaued / leveled off / time window in which acceptor concentration plateaued: mucin layer, pH 6.8, HPLC; for maximum concentration in the acceptor chamber: ~2.5% (w/v) Type II porcine mucin on Transwell, phosphate buffer pH 6.8, 37°C, over 6 h, HPLC-UV 214 nm
Method: Around 2.5% (w/v) of Type II porcine mucin was added to the donor side of the Transwell™ plate along with 300–1000 μL of 6.8 pH phosphate buffer. The mixture was shaken at 37°C for 45–60 min until the proper suspension was attained. Then, 1–2 mL of phosphate buffer at 6.8 pH was added to the acceptor side of the Transwell™ plate.
Fig. 1 A schematic diagram of the diffusion chamber to study peptide diffusion through a mucin layer. The well consists of donor and acceptor chambers separated by a mucin layer. The peptide was added to the donor chamber, and the diffusion of the peptide was monitored by its appearance in the acceptor chamber. The peptide in the acceptor chamber was sampled as a function of time, and the peptide concentration was determined by fluorescence spectroscopy, HPLC, or mass spectrometry
Initially, FITC-ADT10 and FITC-HAV10 peptides were used to test the mucin model in phosphate buffer at pH 6.8. Different concentrations of peptide in phosphate buffer at pH 6.8 were added to the donor chamber; the acceptor chamber contained a phosphate buffer at pH 6.8 in the Transwell™. At predetermined time points, 100 μL aliquots were taken from the acceptor chamber, transferred into 96-well plates, and replaced with pre-heated phosphate buffer pH 6.8. The aliquots were then analyzed by fluorescence spectroscopy plate reader at […].
The diffusion of each unlabeled peptide from the donor-to-acceptor chambers was analyzed by Agilent® 1200 HPLC equipped with a Zorbax C18 column with 3.5 μm particle size and dimensions of 4.6 × 50 mm. The column temperature was held at 30°C during the chromatographic run. Mobile phase A was 0.1% trifluoroacetic acid in Milli-Q water, and mobile phase B was 0.085% trifluoroacetic acid in acetonitrile. The detector was a UV–Vis detector monitoring at 214 nm wavelengths. Calibration curves were prepared in phosphate buffer pH 6.8 in concentrations ranging from 1 to 266 μg/mL.
Student t-tests were used to analyze the difference between the percentage diffused of FITC-HAV10 and FITC-ADT10, octreotide and octreotide A5, and lanreotide and lanreotide A5. The difference in diffusion percentages of ADT peptides was analyzed using ANOVA with Student − Newman − Keul post hoc comparison of the means and Dunnett’s Test comparing DTPPD, DTPPT, and DTPPVK with ADTC5. Statistical significance was set at p < 0.05 unless otherwise stated.

| Molecule | time window in which acceptor concentration plateaued / leveled off [h] | time window in which acceptor concentration plateaued (donor 133 μg/mL) [h] | maximum concentration in the acceptor chamber (donor 133 μg/mL) [mg/mL] | time window in which acceptor concentration plateaued (donor 266 μg/mL) [h] | maximum concentration in the acceptor chamber (donor 266 μg/mL) [mg/mL] |
| --- | --- | --- | --- | --- | --- |
| CC(C)[C@@H]1NC(=O)[C@H](CCCCN)NC(=O)[C@@H](Cc2c[nH]c3ccccc23)NC(=O)[C@H](Cc2ccc(O)cc2)NC(=O)[C@@H](NC(=O)[C@H](N)Cc2ccc3ccccc3c2)CSSC[C@@H](C(=O)N[C@H](C(N)=O)[C@@H](C)O)NC1=O [Lanreotide] | 4 to 6 | – | – | – | – |
| C[C@@H](O)[C@@H]1NC(=O)[C@H](CCCCN)NC(=O)[C@@H](Cc2c[nH]c3ccccc23)NC(=O)[C@H](Cc2ccccc2)NC(=O)[C@@H](NC(=O)[C@H](N)Cc2ccccc2)CSSC[C@@H](C(=O)N[C@H](CO)[C@@H](C)O)NC1=O [Octreotide] | – | 4 to 6 | 0.00593 | 2 to 6 | 0.0116 |
| Cyclo(1,7)Ac-CDTPPVC-NH2 (disulfide) [ADTC5, cyclic ADT cadherin peptide that modulates intercellular junctions] | 2 to 6 | – | – | – | – |
